Experiments:
KnmB1 = assay: Hydrogen peroxide formation assay of KnmB1 and variants; format: biochemical, L. rhizosphaerae NEAU-A2; conditions: 30 °C, average of 3
Description: (§1) Hydrogen peroxide formation assay and NADPH oxidation
(§2) The hydrogen peroxide formed from KnmB1, KnmB2 and their variants were measured using the Hydrogen Peroxide Assay Kit (Beyotime Industrial Co. Ltd, Shanghai, China)4-5. 5–100 µL of enzyme reaction mixture was added to 100 µL of working reagent (S0038-1). The mixture was incubated for 30 min at 25 °C, at which time the absorbance at 560 nm was measured by NanoDrop 2000c (Fisher Scientific). […]
(§3) Spectral data for new compounds […]
Supplementary Figure 131. H2O2 generation and NADPH oxidation for KnmB2, KnmB1 and their variants. (a) Hydrogen peroxide formation of KnmB2 and variants. […]
(b) Hydrogen peroxide formation of KnmB1 and variants. Reaction conditions: 100 µL system containing 50 mM Tris-HCl buffer (pH 7.5), 1 mM NADPH, 16 μM KnmB2, 17 μM KnmB1 or variants, 0.1 mM compound 24,1 mM SAM, and 2 […]
(1 picture or pasted object on this page, not shown here) […]
μM KnmF at 30 °C for 3h. (c) Hydrogen peroxide formation of KnmB1 and variants.
Reaction conditions: 100µL system containing 50 mM Tris-HCl buffer (pH 7.5), 0.3 mM NADPH, and 6 μM KnmB1 or variants, or 0.1 mM 24 at 30 °C for 30 min. […]
2 μM KnmB2 or variants, or 0.1 mM substrate 24/32. […]
Source data are provided as a Source Data file. […]

KnmB2 = assay: NADPH oxidation of KnmB2 and variants (340 nm); format: biochemical, L. rhizosphaerae NEAU-A2
Description: as §1
as §2, with “Scientific). The level of H2O2 was calculated according to a standard concentration curve from standard” for “Scientific).”
NADPH detection was carried out in the cuvette by NanoDrop 2000c (Fisher Scientific). NADPH signal at 340 nm was monitored in time using 6220 M–1 cm–1 as […]
as §3
Reaction conditions: 50 mM Tris-HCl buffer (pH 7.5),
0.15 mM NADPH, and 2 μM KnmB1 or KnmB2. […]
μM KnmB1 or variants, or 0.1 mM substrate 24/32/36. (h) NADPH oxidation of KnmB2 and variants. (i) NADPH oxidation of KnmB2 and variants in the presence 24 or 32. (j) H2O2 generation for KnmB2 and variants in the presence 24 or 32. Reaction conditions (h-j) for KnmB2 and their variants: 50 mM Tris-HCl buffer (pH 7.5), 0.15 mM NADPH, 2 μM KnmB2 or variants, or 0.1 mM substrate 24/32. Values are the means ± SD of n = 3 independent experiments, except for KnmB2+24 (T = 40 min), KnmB2-N219D+24 (T = 4 min), KnmB2-Y215F+24 (T= 1 min and 3 min) in i and j, and KnmB2+32 (T= 8 min) in j (n = 2). Source data are provided as a Source Data file. […]

CC(C)CCCCc1nc(-c2cc(O)cc(C(N)=O)n2)cs1 [Compound 24]
hydrogen peroxide formation of KnmB1 (absorbance UV λ=560 nm), average value (KnmB1; Fig. S131b, 1 mM NADPH, 17 μM KnmB1, 0.1 mM compound, 3 h): 0.5214 | hydrogen peroxide formation of KnmB1 (absorbance UV λ=560 nm), average value (KnmB1; Fig. S131c, 0.3 mM NADPH, 6 μM KnmB1, 0.1 mM compound, 30 min): 1.0442 | NADPH oxidation, average value (KnmB2; KnmB2+24, Time 0): 0.0000 µM | NADPH oxidation, average value (KnmB2; KnmB2+24, Time 1): 5.8950 µM | NADPH oxidation, average value (KnmB2; KnmB2+24, Time 2): 11.0397 µM | NADPH oxidation, average value (KnmB2; KnmB2+24, Time 3): 17.6849 µM | NADPH oxidation, average value (KnmB2; KnmB2+24, Time 4): 25.7235 µM | NADPH oxidation, average value (KnmB2; KnmB2+24, Time 5): 35.2090 µM | NADPH oxidation, average value (KnmB2; KnmB2+24, Time 8): 55.4662 µM | NADPH oxidation, average value (KnmB2; KnmB2+24, Time 10): 66.9346 µM | NADPH oxidation, average value (KnmB2; KnmB2+24, Time 15): 84.8339 µM | NADPH oxidation, average value (KnmB2; KnmB2+24, Time 20): 95.5520 µM | NADPH oxidation, average value (KnmB2; KnmB2+24, Time 30): 104.1265 µM | NADPH oxidation, average value (KnmB2; KnmB2+24, Time 40): 102.4920 µM | NADPH oxidation, average value (KnmB2; KnmB2+24, Time 60): 111.3076 µM | NADPH oxidation, average value (KnmB2; KnmB2-F205A+24, Time 0): 0.0000 µM | NADPH oxidation, average value (KnmB2; KnmB2-F205A+24, Time 1): 0.7985 µM | NADPH oxidation, average value (KnmB2; KnmB2-F205A+24, Time 2): 1.4255 µM | NADPH oxidation, average value (KnmB2; KnmB2-F205A+24, Time 3): 1.3880 µM | NADPH oxidation, average value (KnmB2; KnmB2-F205A+24, Time 4): 1.7631 µM | NADPH oxidation, average value (KnmB2; KnmB2-F205A+24, Time 5): 1.7310 µM | NADPH oxidation, average value (KnmB2; KnmB2-F205A+24, Time 8): 1.8274 µM | NADPH oxidation, average value (KnmB2; KnmB2-F205A+24, Time 10): 2.3312 µM | NADPH oxidation, average value (KnmB2; KnmB2-F205A+24, Time 15): 2.6313 µM | NADPH oxidation, average value (KnmB2; KnmB2-F205A+24, Time 20): 3.4566 µM | NADPH oxidation, average value (KnmB2; KnmB2-F205A+24, Time 30): 5.0911 µM | NADPH oxidation, average value (KnmB2; KnmB2-F205A+24, Time 40): 7.7546 µM | NADPH oxidation, average value (KnmB2; KnmB2-F205A+24, Time 60): 10.8575 µM | NADPH oxidation, average value (KnmB2; KnmB2-N291D+24, Time 0): 0.0000 µM | NADPH oxidation, average value (KnmB2; KnmB2-N291D+24, Time 2): 1.4470 µM | NADPH oxidation, average value (KnmB2; KnmB2-N291D+24, Time 4): 2.7331 µM | NADPH oxidation, average value (KnmB2; KnmB2-N291D+24, Time 5): 4.2337 µM | NADPH oxidation, average value (KnmB2; KnmB2-N291D+24, Time 8): 6.8060 µM | NADPH oxidation, average value (KnmB2; KnmB2-N291D+24, Time 10): 8.5745 µM | NADPH oxidation, average value (KnmB2; KnmB2-N291D+24, Time 15): 11.8971 µM | NADPH oxidation, average value (KnmB2; KnmB2-N291D+24, Time 20): 16.3451 µM | NADPH oxidation, average value (KnmB2; KnmB2-N291D+24, Time 30): 24.5445 µM | NADPH oxidation, average value (KnmB2; KnmB2-N291D+24, Time 40): 34.3516 µM | NADPH oxidation, average value (KnmB2; KnmB2-N291D+24, Time 60): 49.1426 µM | NADPH oxidation, average value (KnmB2; KnmB2-Y215A+24, Time 0): 0.0000 µM | NADPH oxidation, average value (KnmB2; KnmB2-Y215A+24, Time 1): 0.2519 µM | NADPH oxidation, average value (KnmB2; KnmB2-Y215A+24, Time 2): 0.5145 µM | NADPH oxidation, average value (KnmB2; KnmB2-Y215A+24, Time 3): 0.7020 µM | NADPH oxidation, average value (KnmB2; KnmB2-Y215A+24, Time 4): 0.6913 µM | NADPH oxidation, average value (KnmB2; KnmB2-Y215A+24, Time 5): 0.7449 µM | NADPH oxidation, average value (KnmB2; KnmB2-Y215A+24, Time 8): 0.9968 µM | NADPH oxidation, average value (KnmB2; KnmB2-Y215A+24, Time 10): 1.3237 µM | NADPH oxidation, average value (KnmB2; KnmB2-Y215A+24, Time 15): 2.0043 µM | NADPH oxidation, average value (KnmB2; KnmB2-Y215A+24, Time 20): 2.2883 µM | NADPH oxidation, average value (KnmB2; KnmB2-Y215A+24, Time 30): 3.8532 µM | NADPH oxidation, average value (KnmB2; KnmB2-Y215A+24, Time 40): 5.5520 µM | NADPH oxidation, average value (KnmB2; KnmB2-Y215A+24, Time 60): 9.2926 µM | NADPH oxidation, average value (KnmB2; KnmB2-Y215F+24, Time 0): 0.0000 µM | NADPH oxidation, average value (KnmB2; KnmB2-Y215F+24, Time 1): 2.5724 µM | NADPH oxidation, average value (KnmB2; KnmB2-Y215F+24, Time 2): 4.4480 µM | NADPH oxidation, average value (KnmB2; KnmB2-Y215F+24, Time 3): 6.5113 µM | NADPH oxidation, average value (KnmB2; KnmB2-Y215F+24, Time 4): 8.5745 µM | NADPH oxidation, average value (KnmB2; KnmB2-Y215F+24, Time 5): 12.2187 µM | NADPH oxidation, average value (KnmB2; KnmB2-Y215F+24, Time 8): 19.5606 µM | NADPH oxidation, average value (KnmB2; KnmB2-Y215F+24, Time 10): 24.7588 µM | NADPH oxidation, average value (KnmB2; KnmB2-Y215F+24, Time 15): 37.2990 µM | NADPH oxidation, average value (KnmB2; KnmB2-Y215F+24, Time 20): 48.1779 µM | NADPH oxidation, average value (KnmB2; KnmB2-Y215F+24, Time 30): 66.6667 µM | NADPH oxidation, average value (KnmB2; KnmB2-Y215F+24, Time 40): 81.1361 µM | NADPH oxidation, average value (KnmB2; KnmB2-Y215F+24, Time 60): 100.0536 µM | coupling efficiency (KnmB2; hydroxylatable effector for KnmB2, from NADPH consumption and H2O2 formation in time): 0–45%
